This note sets out measurements from article PMC9447987, “Long-term memory CD8^+ T cells specific for SARS-CoV-2 in individuals who received the BNT162b2 mRNA vaccine” (Nature Communications, 2022).

In experiment [1] the test system is HLA-A*24:02-restricted CD8+ T cells. It counts as cell-based, human.
The target in the next experiment is HLA-A*24:02 (Homo sapiens, UniProt P04439, D101N/D140Y/D185E/E176V/E190D/F33S/G103R/G107R/I119L/I121M/I306V/K335N/L105A/L180Q/L300P/N151K/N90K/Q86E/Q94H/R106L/R138H/R89G/T104I/T345S/V100E/W191G/Y123F). The experiment can be described thus: HLA stabilization assay using RMA-S-A2402 cells. Format: binding.
Experiment [2] relates to HLA-A*24:02-peptide complexes. The experiment can be described thus: Peptide–MHC Complex Dissociation Assay using RMA-S-A2402 cells. Format: binding, human. The conditions noted are these: for % Mean Fluoresence: Fig.7d.

As to YYVKWPWYV [OC43], the “sensitivity of S-QI9-specific T cells for the peptide compared with the SARS-CoV-2 S-QI9 epitope (in words)” value in experiment [1] is “higher sensitivity”. Also, in experiment [1] (13 HLA-A*24:02+ individuals, C1R-A2402 pre-pulsed with 1 nM peptide), the “number of S-QI9-specific T cell populations that effectively recognized the peptide” value was 13. The “MFI, HLA-A2402 (APC), representative staining” value at HLA-A*24:02 (RMA-S-A2402 cells, Suppl. Fig. 3d (for Fig. 7c), peptide(-) 11.3, 26 °C (Maximum) 24.0) came out at 45.9. Also, the “affinity for HLA-A*24:02, times weaker than that of S-QI9” value on HLA-A*24:02 (approximately, peptide 0.03 to 10 μM) is listed as 10–30 times. The “% Mean Fluoresence” value was 100% in experiment [2] (post-incubation 0 hour, replicate 1); 100% in experiment [2] (post-incubation 0 hour, replicate 2); 100% in experiment [2] (post-incubation 0 hour, replicate 3); 70.4% in experiment [2] (post-incubation 1 hour, replicate 1); 82.2% in experiment [2] (post-incubation 1 hour, replicate 2); 77.7% in experiment [2] (post-incubation 1 hour, replicate 3). The “% Mean Fluoresence” value turned out to be 54.3% in experiment [2] (post-incubation 2 hour, replicate 1); 54.5% in experiment [2] (post-incubation 2 hour, replicate 2); 58.1% in experiment [2] (post-incubation 2 hour, replicate 3); 20.6% in experiment [2] (post-incubation 4 hour, replicate 1); 25.6% in experiment [2] (post-incubation 4 hour, replicate 2); 22% in experiment [2] (post-incubation 4 hour, replicate 3). The “stability of the HLA-A*24:02-peptide complex (in words)” value in experiment [2] (RMA-S-A2402 cells, 10 μM peptide, 0, 1, 2 and 4 h) is “identical to that of the HLA-A*24:02-S-QI9 peptide complex”.
